Measurements as given in patent US20260258032A1, “TYROSINE KINASE 2 INHIBITORS AND USES THEREOF” (BIOGEN MA INC., priority 2022, published 2026).
pIC50: −log10 of the molar value. Structures can show the parent of a compound that is named as a salt.

Experiments:
JH2 domain of human Tyk2 = molecular target: T1, JH2 domain of human Tyk2 (Homo sapiens, UniProt P29597); test: JH2 biochemical assay (TR-FRET probe displacement); assay type: binding
T1 construct: 10×His-tagged TYK2 JH2 domain (amino acid 575-876)
Summary of the method: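 A probe-displacement TR-FRET readout: compounds, tested in 3-fold, 10-point dilutions starting at […], compete with 2 nM tracer for 2 nM His-tagged JH2 (residues 575-876) detected by 0.1 nM Tb-anti-His over 60 min. IC50 comes from 4-parameter fits of normalized 520/495 nm ratios.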

[1] = system: Tyk2 kinase activity on STAT4; test: pSTAT4 cell assay (MSD, NK92 cells); assay type: cell-based; details: compounds 1 hr
Summary of the method: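 IC50 values come from 4-parameter logistic fits of normalized percent activity. Phospho-STAT was read by MSD (anti-STAT4 antibodies) in NK92 lysates after a 15 min stimulation with 30 ng/mL IL2. The serum-starved cells had been given compound for 1 h (10 points, four-fold, top 10 μM).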

[2] = TR-FRET probe displacement, JH2 domain of human Tyk2

T1 sequence (P29597 575-876): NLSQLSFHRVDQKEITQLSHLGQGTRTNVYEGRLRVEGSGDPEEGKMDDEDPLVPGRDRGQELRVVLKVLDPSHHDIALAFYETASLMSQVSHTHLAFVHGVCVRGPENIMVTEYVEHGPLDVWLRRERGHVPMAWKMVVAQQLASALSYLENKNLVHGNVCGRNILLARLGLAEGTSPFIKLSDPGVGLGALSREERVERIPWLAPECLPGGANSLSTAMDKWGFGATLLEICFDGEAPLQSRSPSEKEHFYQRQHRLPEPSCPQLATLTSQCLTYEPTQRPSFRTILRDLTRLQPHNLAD

Row | SMILES | pIC50 (JH2 domain of human Tyk2; JH2 biochemical assay) | pIC50 ([1]; stimulated 15 minutes) | pIC50 (JH2 domain of human Tyk2; [2]) | pIC50 ([1]; then stimulated 15 minutes)
1 | COC(C)CNc1cc(N2CC3(CC3)c3cnc(NC(C)=O)cc32)nc(C(C)(F)F)n1 (centres unmarked) [Example 171, N-(1′-(2-(1,1-difluoroethyl)-6-((2-methoxypropyl)amino)pyrimidin-4-yl)-1′,2′-dihydrospiro[cyclopropane-1,3′-pyrrolo[3,2-c]pyridin]-6′-yl)acetamide trifluoroacetate] | ≥ 8.00 | 7.00 to 8.00 | – | –
2 | CC(=O)Nc1cc2c(cn1)C1(CC1)CN2c1cc(OC2CC2)nc(C(C)(F)F)n1 [Example 6, N-(1′-(6-cyclopropoxy-2-(1,1-difluoroethyl)pyrimidin-4-yl)-1′,2′-dihydrospiro[cyclopropane-1,3′-pyrrolo[3,2-c]pyridin]-6′-yl)acetamide] | ≥ 8.00 | 7.00 to 8.00 | – | –
3 | CC(=O)Nc1cc2c(cn1)C1(CC1)CN2c1cc(C)cc(OCC2CCO2)n1 (centres unmarked) [Example 358, N-(1′-(4-methyl-6-(oxetan-2-ylmethoxy)pyridin-2-yl)-1′,2′-dihydrospiro[cyclopropane-1,3′-pyrrolo[3,2-c]pyridin]-6′-yl)acetamide trifluoroacetate] | ≤ 6.00 | ≤ 6.00 | – | –
4 | CC(=O)Nc1cc2c(cn1)C1(CC1)CN2c1cc(-c2cn(C)nc2C)nc(C(C)(F)F)n1 [Example 239, N-(1′-(2-(1,1-difluoroethyl)-6-(1,3-dimethyl-1H-pyrazol-4-yl)pyrimidin-4-yl)-1′,2′-dihydrospiro[cyclopropane-1,3′-pyrrolo[3,2-c]pyridin]-6′-yl)acetamide trifluoroacetate] | ≥ 8.00 | 7.00 to 8.00 | – | –
5 | CC(=O)Nc1cc2c(cn1)C1(CC1)CN2c1cc(NC2CCOC2)nc(C(C)(F)F)n1 (centres unmarked) [Example 179, N-(1′-(2-(1,1-difluoroethyl)-6-((tetrahydrofuran-3-yl)amino)pyrimidin-4-yl)-1′,2′-dihydrospiro[cyclopropane-1,3′-pyrrolo[3,2-c]pyridin]-6′-yl)acetamide trifluoroacetate] | ≥ 8.00 | 7.00 to 8.00 | – | –
6 | CC(=O)Nc1cc2c(cn1)C1(CC1)CN2c1cc(C)nc(N2CC(C#N)(C(F)F)C2)n1 [Example 223, N-(1′-(2-(3-cyano-3-(difluoromethyl)azetidin-1-yl)-6-methylpyrimidin-4-yl)-1′,2′-dihydrospiro[cyclopropane-1,3′-pyrrolo[3,2-c]pyridin]-6′-yl)acetamide trifluoroacetate] | 7.00 to 8.00 | ≤ 6.00 | – | –
7 | CCn1cc(-c2cc(C)cc(N3CC4(CC4)c4cnc(NC(C)=O)cc43)n2)cn1 [Example 260, N-(1′-(6-(1-ethyl-1H-pyrazol-4-yl)-4-methylpyridin-2-yl)-1′,2′-dihydrospiro[cyclopropane-1,3′-pyrrolo[3,2-c]pyridin]-6′-yl)acetamide trifluoroacetate] | 7.00 to 8.00 | ≤ 6.00 | – | –
8 | CC(=O)Nc1cc2c(cn1)C1(CC1)CN2c1cc(C)nc(N2CC(C)(O)C2)n1 [Example 226, N-(1′-(2-(3-hydroxy-3-methylazetidin-1-yl)-6-methylpyrimidin-4-yl)-1′,2′-dihydrospiro[cyclopropane-1,3′-pyrrolo[3,2-c]pyridin]-6′-yl)acetamide] | 7.00 to 8.00 | ≤ 6.00 | – | –
9 | COc1cc(N2CCc3cnc(NC(C)=O)cc32)nc(C(C)(F)F)n1 [Example 34, N-(1-(2-(1,1-difluoroethyl)-6-methoxypyrimidin-4-yl)-2,3-dihydro-1H-pyrrolo[3,2-c]pyridin-6-yl)acetamide] | 7.00 to 8.00 | ≤ 6.00 | – | –
10 | CC(=O)Nc1cc2c(cn1)C1(CC1)CN2c1cc(C)cc(N2CC(C#N)(CF)C2)n1 [Example 196, N-(1′-(6-(3-cyano-3-(fluoromethyl)azetidin-1-yl)-4-methylpyridin-2-yl)-1′,2′-dihydrospiro[cyclopropane-1,3′-pyrrolo[3,2-c]pyridin]-6′-yl)acetamide] | 7.00 to 8.00 | 6.00 to 7.00 | – | –
11 | CC(=O)Nc1cc2c(cn1)C1(CC1)CN2c1cc(C)nc(N2CC(CC(C)C)C2)n1 [Example 410, N-(1′-(2-(3-isobutylazetidin-1-yl)-6-methylpyrimidin-4-yl)-1′,2′-dihydrospiro[cyclopropane-1,3′-pyrrolo[3,2-c]pyridin]-6′-yl)acetamide trifluoroacetate] | – | – | ≤ 6.00 | 6.00 to 7.00
12 | CC(=O)Nc1cc2c(cn1)C1(CC1)CN2c1cc(C)cc(-c2cnn(C)c2)n1 [Example 257, N-(1′-(4-methyl-6-(1-methyl-1H-pyrazol-4-yl)pyridin-2-yl)-1′,2′-dihydrospiro[cyclopropane-1,3′-pyrrolo[3,2-c]pyridin]-6′-yl)acetamide trifluoroacetate] | ≥ 8.00 | 6.00 to 7.00 | – | –
13 | CC(=O)Nc1cc2c(cn1)C1(CC1)CN2c1cc(=O)[nH]c(C(C)(F)F)n1 [Example 133, N-(1′-(2-(1,1-difluoroethyl)-6-oxo-1,6-dihydropyrimidin-4-yl)-1′,2′-dihydrospiro[cyclopropane-1,3′-pyrrolo[3,2-c]pyridin]-6′-yl)acetamide] | ≥ 8.00 | ≤ 6.00 | – | –
14 | CC(=O)Nc1cc2c(cn1)C1(CC1)CN2c1cc(NC2CCSC2)nc(C(C)(F)F)n1 (centres unmarked) [Example 181, N-(1′-(2-(1,1-difluoroethyl)-6-((tetrahydrothiophen-3-yl)amino)pyrimidin-4-yl)-1′,2′-dihydrospiro[cyclopropane-1,3′-pyrrolo[3,2-c]pyridin]-6′-yl)acetamide] | ≥ 8.00 | 7.00 to 8.00 | – | –
15 | CC(=O)Nc1cc2c(cn1)C1(CC1)CN2c1cc(N2CCOCC2)nc(C(C)(F)F)n1 [Example 52, N-(1′-(2-(1,1-difluoroethyl)-6-morpholinopyrimidin-4-y1)-1′,2′-dihydrospiro[cyclopropane-1,3′-pyrrolo[3,2-c]pyridin]-6′-yl)acetamide] | ≥ 8.00 | 6.00 to 7.00 | – | –
16 | CC(=O)Nc1cc2c(cn1)C1(CC1)CN2c1cc(C(C)(C)F)nc(C(C)(F)F)n1 [Example 398, N-(1′-(2-(1,1-difluoroethyl)-6-(2-fluoropropan-2-yl)pyrimidin-4-yl)-1′,2′-dihydrospiro[cyclopropane-1,3′-pyrrolo[3,2-c]pyridin]-6′-yl)acetamide] | – | – | ≥ 8.00 | 7.00 to 8.00
17 | COC1(C(=O)C2CC2)CCN(c2nc(C)cc(N3CC4(CC4)c4cnc(NC(C)=O)cc43)n2)CC1 [Example 231, N-(1′-(2-(4-(cyclopropanecarbonyl)-4-methoxypiperidin-1-yl)-6-methylpyrimidin-4-yl)-1′,2′-dihydrospiro[cyclopropane-1,3′-pyrrolo[3,2-c]pyridin]-6′-yl)acetamide trifluoroacetate] | 6.00 to 7.00 | ≤ 6.00 | – | –
18 | COCCC1(C#N)CN(c2cc(C)cc(N3CC4(CC4)c4cnc(NC(C)=O)cc43)n2)C1 [Example 199, N-(1′-(6-(3-cyano-3-(2-methoxyethyl)azetidin-1-yl)-4-methylpyridin-2-yl)-1′,2′-dihydrospiro[cyclopropane-1,3′-pyrrolo[3,2-c]pyridin]-6′-yl)acetamide] | 7.00 to 8.00 | ≤ 6.00 | – | –
19 | CC(=O)Nc1cc2c(cn1)C1(CC1)CN2c1cc(C)cc(N2CCC(O)(C(F)(F)F)C2)n1 (centres unmarked) [Example 186, N-(1′-(6-(3-hydroxy-3-(trifluoromethyl)pyrrolidin-1-yl)-4-methylpyridin-2-yl)-1′,2′-dihydrospiro[cyclopropane-1,3′-pyrrolo[3,2-c]pyridin]-6′-yl)acetamide] | 6.00 to 7.00 | ≤ 6.00 | – | –
